The source of these data is patent publication US12281119B2, “Imidazo[2,1-f][1,2,4]triazin-4-amine derivatives as TLR7 agonist” (BEIGENE, LTD., priority 2019, dated 2025).

What is called EC50 is the concentration giving half of the maximal effect.

Some results are limits rather than exact numbers.

The first experiment deals with T1, human TLR7 (Homo sapiens, UniProt Q9NYK1).
T1 sequence (Q9NYK1 27-1049): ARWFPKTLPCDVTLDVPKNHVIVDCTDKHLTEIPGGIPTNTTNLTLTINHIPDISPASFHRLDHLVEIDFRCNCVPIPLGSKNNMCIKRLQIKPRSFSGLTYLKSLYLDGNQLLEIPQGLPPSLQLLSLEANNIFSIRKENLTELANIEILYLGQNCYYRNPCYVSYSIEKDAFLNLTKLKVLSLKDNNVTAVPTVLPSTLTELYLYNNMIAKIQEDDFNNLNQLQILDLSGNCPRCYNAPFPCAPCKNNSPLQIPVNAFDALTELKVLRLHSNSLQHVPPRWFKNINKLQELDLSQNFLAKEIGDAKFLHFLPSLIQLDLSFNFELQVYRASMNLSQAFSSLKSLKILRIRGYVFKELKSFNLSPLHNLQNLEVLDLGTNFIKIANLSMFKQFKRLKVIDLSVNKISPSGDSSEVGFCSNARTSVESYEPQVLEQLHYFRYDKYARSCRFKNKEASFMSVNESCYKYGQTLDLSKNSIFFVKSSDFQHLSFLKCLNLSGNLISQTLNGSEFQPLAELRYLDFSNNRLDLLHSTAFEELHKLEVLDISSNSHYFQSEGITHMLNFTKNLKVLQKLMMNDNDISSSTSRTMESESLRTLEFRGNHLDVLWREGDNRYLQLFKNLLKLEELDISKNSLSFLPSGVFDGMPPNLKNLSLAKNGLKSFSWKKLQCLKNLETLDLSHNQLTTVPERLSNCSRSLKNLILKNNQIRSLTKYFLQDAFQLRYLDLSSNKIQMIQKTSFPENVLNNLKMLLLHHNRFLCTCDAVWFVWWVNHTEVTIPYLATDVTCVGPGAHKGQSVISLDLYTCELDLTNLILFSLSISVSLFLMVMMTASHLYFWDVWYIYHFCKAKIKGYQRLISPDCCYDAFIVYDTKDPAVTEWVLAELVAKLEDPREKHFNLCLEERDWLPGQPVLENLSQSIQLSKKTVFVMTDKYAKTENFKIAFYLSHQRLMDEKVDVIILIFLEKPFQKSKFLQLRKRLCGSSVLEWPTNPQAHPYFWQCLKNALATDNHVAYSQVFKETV
The experiment can be described thus: HEK293-Blue hTLR7 reporter assay (QUANTI-BLUE, SEAP readout). Type of experiment: cell-based. Set-up: host or cells: HEK293 (HEK-Blue-hTLR7). Particulars: HEK-Blue-hTLR7 cells, QUANTI-BLUE assay (A1-A76), 24 hrs. The method, then: HEK293-Blue hTLR7 Reporter Assay:
HEK-Blue-hTLR7 cell line (Invivogen, Cat. No. hkb-htlr7) was designed so that the expression of the secreted embryonic alkaline phosphatase (SEAP) was induced by activating NF-κ and AP-1 via stimulating human TLR7 with TLR7 agonists.
HEK-Blue-hTLR7 cells were seeded at a density of 4×10^4 cells/well in a volume of 180 μL in a 96-well plate in DMEM (Cat. No. 11965-092) supplemented with 10% (v/v) heat-inactivated fetal bovine serum (FBS) (Gibco, 10099-1441), 100 U/ml penicillin and 100 μg/ml streptomycin (Gibco, 15140122) containing […], […] and 10% (v/v) heat-inactivated fetal bovine serum. The cells were settled for 5 hrs, then treated with increasing amounts of tested compounds at 37° C. for 24 hrs. Then 20 μL of the supernatant from each well was incubated with 180 uL Quanti-blue substrate solution at 37° C. for 10-30 mins before the activity of the SEAP was determined at 620-655 nm using a spectrophotometer. The EC50 value for each compound was calculated with GraphPad Prism software using the sigmoidal dose-response function.
(Reporter assays use an easily measured gene product as a stand-in for the process of interest.)
For the compound `CCCCOc1nc(N)c2ncc(Cc3ccc(OCCCNC)cc3)n2n1` [Compound A63, 2-butoxy-7-(4-(3-(methylamino)propoxy)benzyl)imidazo[2,1-f][1,2,4]triazin-4-amine], the EC50 came out at 0.996 µM.
On the same count and under the same terms, as for `Nc1nc(NCc2ccco2)nn2c(Cc3ccc(CN4CCCC4)cc3)cnc12` [Compound A64, N^2-(furan-2-ylmethyl)-7-(4-(pyrrolidin-1-ylmethyl)benzyl)imidazo[2,1-f][1,2,4]triazine-2,4-diamine], the figure is 4 µM.
Consider `Nc1nc(O)nn2c(Cc3ccc(CN4CCCC4)cc3)cnc12` [Compound A65, 4-amino-7-(4-(pyrrolidin-1-ylmethyl)benzyl)imidazo[2,1-f][1,2,4]triazin-2-ol], for which the EC50 is greater than 10 µM.
`CCCCOc1nc(N)c2ncc(Cc3ccc(C4CCN(C)C4)cc3)n2n1` (stereo not shown) [Compound A66, 2-butoxy-7-(4-(1-methylpyrrolidin-3-yl)benzyl)imidazo[2,1-f][1,2,4]triazin-4-amine] showed an EC50 of 0.387 µM.
`CCCCNc1nc(N)c2ncc(Cc3ccc(CN4CCCC4)cc3)n2n1` [Compound A67, N2-butyl-7-(4-(pyrrolidin-1-ylmethyl)benzyl)imidazo[2,1-f][1,2,4]triazine-2,4-diamine]: the EC50 was 0.585 µM. Compared with the last compound, the EC50 is about 1.5-fold higher.
`Nc1nc(OCc2cccnc2)nn2c(Cc3ccc(CN4CCCC4)cc3)cnc12` [Compound A68, 2-(pyridin-3-ylmethoxy)-7-(4-(pyrrolidin-1-ylmethyl)benzyl)imidazo[2,1-f][1,2,4]triazin-4-amine] registered an EC50 greater than 10 µM.
Regarding `Nc1nc(OCCCC(F)(F)F)nn2c(Cc3ccc(CN4CCCC4)cc3)cnc12` [Compound A69, 7-(4-(pyrrolidin-1-ylmethyl)benzyl)-2-(4,4,4-trifluorobutoxy)imidazo[2,1-f][1,2,4]triazin-4-amine], the midpoint of the response, the EC50, lay at 1.24 µM.
Take `CCCCOc1nc(N)c2ncc(Cc3cccc(CN)c3)n2n1` [Compound A70, 7-(3-(aminomethyl)benzyl)-2-butoxyimidazo[2,1-f][1,2,4]triazin-4-amine]: the EC50 was greater than 10 µM.
In the case of `CCCCOc1nc(N)c2ncc(Cc3ccc(CN4CCN(CCCO)CC4)cc3)n2n1` [Compound A71, 3-(4-(4-((4-amino-2-butoxyimidazo[2,1-f][1,2,4]triazin-7-yl)methyl)benzyl)piperazin-1-yl)propan-1-ol], the EC50 was 1.17 µM.
Regarding `CCCCOc1nc(N)c2ncc(Cc3cnc(OC4CCNCC4)c(C)c3)n2n1` [Compound A72, 2-butoxy-7-((5-methyl-6-(piperidin-4-yloxy)pyridin-3-yl)methyl)imidazo[2,1-f][1,2,4]triazin-4-amine], a half-maximal effect (EC50) was put at 0.462 µM.
As to `CCCCOc1nc(N)c2ncc(C(O)c3cc(OC)ccn3)n2n1` (stereo not shown) [Compound A73, (4-amino-2-butoxyimidazo[2,1-f][1,2,4]triazin-7-yl)(4-methoxypyridin-2-yl)methanol], the EC50 was greater than 10 µM.
With `CCCCOc1nc(N)c2ncc(C(O)c3ccccn3)n2n1` (stereo not shown) [Compound A74, (4-amino-2-butoxyimidazo[2,1-f][1,2,4]triazin-7-yl)(pyridin-2-yl)methanol], the EC50 was greater than 10 µM.
As to `CCCCOc1nc(N)c2ncc(C(C)c3ccc(CN4CCCC4)cc3)n2n1` (stereo not shown) [Compound A75, 2-butoxy-7-(1-(4-(pyrrolidin-1-ylmethyl)phenyl)ethyl)imidazo[2,1-f][1,2,4]triazin-4-amine], the EC50 is greater than 10 µM.
In turn, `CCCCOc1nc(N)c2ncc(Cc3cnn(CC4CCCNC4)c3)n2n1` (stereo not shown) [Compound A76, 2-butoxy-7-((1-(piperidin-3-ylmethyl)-1H-pyrazol-4-yl)methyl)imidazo[2,1-f][1,2,4]triazin-4-amine] had an EC50 greater than 10 µM.

Staying with this experiment, now noted: HEK-Blue-hTLR7 cells, QUANTI-BLUE assay (C1-C6), 24 hrs.
Turning to `CCCCOc1nc(N)n2ncc(Cc3cccc(CN4CCCC4)c3)c2n1` [Compound C1, 2-butoxy-8-(3-(pyrrolidin-1-ylmethyl)benzyl)pyrazolo[1,5-a][1,3,5]triazin-4-amine], the EC50 is greater than 10 µM.
The same measure, in the same setting: as for `CCCCOc1nc(N)n2ncc(Cc3ccc(CN4CCCC4)cc3)c2n1` [Compound C2, 2-butoxy-8-(4-(pyrrolidin-1-ylmethyl)benzyl)pyrazolo[1,5-a][1,3,5]triazin-4-amine], the figure is greater than 10 µM; as for `CCCCOc1cc2c(Cc3cnc(N4CCNCC4)c(Cl)c3)cnn2c(N)n1` [Compound C3, 5-butoxy-3-((5-chloro-6-(piperazin-1-yl)pyridin-3-yl)methyl)pyrazolo[1,5-c]pyrimidin-7-amine], greater than 10 µM; as for `CCCCOc1cc(N)c2ncc(Cc3cnc(N4CCNCC4)c(C)c3)n2n1` [Compound C5, 6-butoxy-3-((5-methyl-6-(piperazin-1-yl)pyridin-3-yl)methyl)imidazo[1,2-b]pyridazin-8-amine], greater than 10 µM.
Same read-out and setting: with `CCCCOc1nc(N)c2[nH]cc(Cc3cnc(N4CCNCC4)c(C)c3)c2n1` [Compound C6, 2-butoxy-7-((5-methyl-6-(piperazin-1-yl)pyridin-3-yl)methyl)-5H-pyrrolo [3,2-d]pyrimidin-4-amine] the figure was 1.07 µM.
